Test results from patent publication US9403778B2, “Agents that prevent or repair skin damage” (Regents of the University of Minnesota, priority 2012, dated 2016).

Legend:
[1] = tested on: xpc; experiment: Test D. Murine animal studies: up-regulation of DNA repair enzyme xpc in dorsal skin; assay type: in vivo, mouse; details: 5% in cream vehicle, topical
Protocol: (§1) The UVA, UVB and Solar Simulated Light (SSL) treatment groups included mice that were left untouched in their cages (no preventative treatment) and mice treated topically on their backs with cream vehicle or AR compounds in the cream vehicle and rubbed with a glove. At 20 minutes post treatment the mice were exposed to 180 mJ/cm^2 of UVA, UVB or SSL equivalent to one hour of noon day summer sunlight. One, four, eight and twenty-four hours post UVA, UVB or SSL exposure, the mice were euthanized by IP Ketamine/Xylazine injection and bled.
(§2) The no UVA, UVB and SSL treatment groups included mice which were left untouched in their cages (no preventative treatment) and mice treated topically on their backs with cream vehicle and AR compounds in cream vehicle as indicated above. After treatment the mice were placed back into their cages, away from sunlight. One, four, eight and twenty-four hours post treatment, the no UVA, UVB and SSL treated mice were euthanized by IP Ketamine/Xylazine injection and bled.
(§3) For the animal groups above, post euthanasia, the dorsal and belly skin was collected and preserved in Zamboni's fixative for future studies. […] The skin was analyzed in-house by immunohistostaining (p53, thymine dimer, XPC and other DNA repair enzymes, collagen, elastin, etc.) and confocal microscopy. […]

[2] = tested on: xpc; experiment: Test E. Human skin study: xpc production
Protocol: Human skin was obtained from the University of Minnesota BioNet Tissue Procurement Facility and stored on ice or in cell culture media until ready to be used. All samples were kept away from sunlight. The skin was cut into pieces and placed in 6-well cell culture plates with a small amount of culture media at the bottom of the well but not enough to cover the top of the tissue. Using a gloved hand, the skin was rubbed with cream vehicle or AR drug in the cream vehicle. At 20 minutes post treatment the skin was exposed to 180 mJ/cm^2 of UVA, UVB or Solar Simulated Light (SSL) equivalent to one hour of noon day summer sunlight. Post UVA, UVB or SSL exposure, additional media was placed in the bottom of the wells and the plates moved to the tissue culture incubator (37° C., 5% CO2). Samples were removed from the incubator and placed in Zamboni's fixative for future studies at one, four, eight and twenty-four hours post UVA, UVB or SSL exposure.
Samples not exposed to UVA, UVB or SSL light were placed into 6-well plates with a small amount of cell culture media but not enough to cover the top of the tissue and stored in the cell culture incubator. […]
All skin samples were analyzed in-house by immunohistostaining (p53, thymine dimer, XPC and other DNA repair enzymes, collagen, elastin, etc.) and confocal microscopy.

[3] = tested on: SKH-1 hairless mouse dorsal skin; experiment: Test D. Murine animal studies: thymine dimer formation (DNA damage) in dorsal skin; assay type: in vivo
Protocol: Test D. Murine Animal Studies
as §1, §2, §3

SMILES	xpc immuno-reactivity (xpc antibody) ([1]; no SSL irradiation)	xpc levels / xpc staining in non-irradiated human skin ([2]; human skin not exposed to SSL, compared with SSL only control)	time post application at which xpc stimulation is still evident ([2]; non SSL damaged human skin)	thymine dimer immuno-reactivity of skin section ([3]; 5% in cream vehicle, topical, no SSL irradiation, 8 hour time point)	xpc production in SSL exposed skin ([1]; solar simulated light equivalent to 1 h noon time summer sun light, vs SSL cream-only control)	protection against thymine dimer formation (DNA damage) ([3]; in cream vehicle, topical 20 minutes prior to UVB 6 KJ/m^2, harvested 4 hours after irradiation, vs UV only control)
C[C@@]12C(=O)NC(=O)N3CCCN4C(=O)NC(=O)[C@]1(C)[C@H]4[C@H]32 [Compound 10]	significant immuno-reactivity	higher levels of xpc than the SSL only control	≥ 8 h	completely negative		
CCCC(=O)N(CCn1cc(C)c(=O)[nH]c1=O)CCn1cc(C)c(=O)[nH]c1=O [Compound 24a]					stimulated xpc production	protected against thymine dimer formation
